Entries after “also recorded” stand apart in the source; their conditions may differ. Like-named read-outs stand apart in the source and are kept apart here.
Key:
Primary tumor = assay: Percent inhibition of growth relative to controls, primary tumor (Table 4); type: in vivo
Metastases = assay: Percent inhibition of growth relative to controls, metastases (Table 4); type: in vivo
SGC-7901 cells [1] = assay: Cell growth assay; type: cell-based; details: Homo sapiens, read-out: inhibition rate of cell growth
Protocol: (§1) Human gastric adenocarcinoma cell line SGC-7901 which had been widely used for gastric cancer research was maintained in Hubei Key Laboratory of Tumor Biological Behaviors. Cells were cultured in RPMI-1640 medium supplemented with 10% standard newborn bovine serum in the 5% CO2, saturated humidity, 37° C. incubator (Shel Lab, OR, USA). The culture medium was changed every 2 days.
SGC-7901 cells at exponential growth phase were planted in 24-well culture plates (Corning, N.Y., USA) at a density of 1×10^5/well. After 48 h, cell numbers were determined by direct cell counting of 3 wells, which was designated as cell number of day 0 (D0). Then the cells were divided into 6 groups, treated with normal saline (100 μl), ADM (0.5 μg/ml), ADM (1.0 μg/ml), PADM (0.9 μg/ml), PADM (1.8 μg/ml), and PADM (3.6 μg/ml), respectively, 3 wells per group. Cells in each group were harvested and counted daily from D2 to D7. The cell growth curve was plotted.

SGC-7901 cells [2] = assay: Flow cytometric analysis of cell cycle; type: cell-based, Human; details: SGC-7901, 24 h, ADM 0.25 μg/ml, PADM 0.45 μg/ml
Protocol: as §1
To study the effect of PADM on cell cycle, flow cytometric analysis was performed. SGC-7901 cells were planted in 6-well culture plates (Corning, N.Y., USA), at a density of 2×10^6/well. After 48 h, the cells were divided into 3 groups and treated for 24 h with normal saline (25 μl), ADM (0.25 μg/ml), and PADM (0.45 μg/ml). The cells in each group were harvested to make single-cell suspension, centrifuged at 4° C.×1000 rpm for 10 min, washed twice with phosphate buffered saline (pH=7.4), fixed and stained with PI kit. Cell cycle analysis was performed by flow cytometry with FC 500 (Beckman Coulter, Calif., USA).

[3] = system: SGC-7901 peritoneal carcinomatosis; assay: GC peritoneal carcinomatosis model, therapeutic study; type: in vivo, nude mice; details: ADM 2.0 mg/kg; for lung metastasis / median (range) ePCI score: D40; for lung metastasis / relative ePCI reduction: PADM 7.2 mg/kg i.p x8; for median (range) ePCI score: i.p x8 (D8-D36), PADM 7.2 mg/kg; for relative ePCI reduction: compared with control
[4] = for peripheral blood parameters (RBC, lymphocytes) versus control: D16, D24, D32 tail vein blood; for liver and kidney function (ALT, AST, BUN, Cr) versus control: D40 serum, 4 major parameters; for body weight: ADM 2.0 mg/kg, PADM 7.2 mg/kg i.p x8 (FIG. 3)
Protocol: After 3 days of adaptation, the animals were used for in vivo study, and the protocols were approved by the Animal Care Committee of Wuhan University.
SGC-7901 cells (5×10^6/0.2 ml) were subcutaneously inoculated into the back of nude mice (n=4) as donor tumors, and cells (1×10^7/0.4 ml) were i.p inoculated into the peritoneal cavity of nude mice (n=2). After 50 days, tumor nodules and ascites were obtained and tumor tissue homogenate was re-suspended in ascites at a density of 1×10^7/ml (ascites were used as condition medium). These cell suspensions were injected i.p into 29 nude mice, 0.2 ml containing 5×10^6 cells for each animal, on day 0 (D0). On D8, all of the mice were randomized into 3 groups: control group (n=9), ADM group (n=10) and PADM group (n=10). […] D40 was set as the end point of this study. On D16, D24 and D32, 80 μl of blood was obtained from tail veins, anticoagulated by EDTA, and analyzed by Sysmex KX-21 automated hematology analyzer (Sysmex, Kobe, Japan). On D40, all mice were sacrificed, blood was obtained, coagulated and centrifugated at 4° C.×3000 rpm for 10 min to separate serum for biochemical analysis, including ALT (alanine aminotransferase), AST (aspartate aminotransferase), BUN (blood urea nitrogen), Cr (creatinine), CK (creatine kinase), CK-MB (creatine kinase-MB), LDH (lactate dehydrogenase) by Aeroset Clinical Chemistry Analyzer (Abbott Laboratories, IL, USA).
At autopsy, major organs including the heart, liver, kidneys, spleen and lungs were examined for any toxic changes. Any organs involved by the tumor and the tumor nodules were formalin-fixed, paraffin-embedded, and cut at 5-μm thickness, for histopathological study after hematoxylin and eosin (H&E) staining

[5] = mice, cited from earlier work
Cat B = Cat B (Homo sapiens, UniProt P07858); details: cited from earlier work
[6] = 37° C., over 6-7 h; cited from earlier work
Pilot dosage study = details: nude mice
[7] = Metastases to Mediastinal lymph nodes

## COc1cccc2c1C(=O)c1c(O)c3c(c(O)c1C2=O)C[C@@](O)(C(=O)CO)C[C@@H]3O[C@H]1C[C@H](N)[C@H](O)[C@H](C)O1 [ADM, doxorubicin, reference compound]
Primary tumor
  Percent inhibition of growth relative to controls: 42%
Metastases; Metastases to Diaphragm
  Percent inhibition of growth relative to controls: 19%
Metastases; Metastases to Lung
  Percent inhibition of growth relative to controls: 36%
Metastases; [7]
  Percent inhibition of growth relative to controls: 9.1%
Metastases; Metastases to Mesenteric
  Percent inhibition of growth relative to controls: 9.1%
Metastases; Metastases to Retroperitoneal
  Percent inhibition of growth relative to controls: 65%
SGC-7901 cells [1]; SGC-7901, D7, 0.5 μg/ml
  inhibition at 0.5 µg/mL: 80.2%
SGC-7901 cells [1]; SGC-7901, D7, 1.0 μg/ml
  inhibition at 1 µg/mL: 96.3%
SGC-7901 cells [2]
  effect on cell cycle / apoptosis: a prominent apoptosis peak was observed
[3]
  lung metastasis: no lung metastasis
  median (range) ePCI score: 1.5 (0-6)
  relative ePCI reduction: 75%
[4]
  peripheral blood parameters (RBC, lymphocytes) versus control: significantly lower RBC counts
  liver and kidney function (ALT, AST, BUN, Cr) versus control: 3 out of the 4 parameters achieved statistical significance
[4]; D36, group n=10
  nude mice died due to severe toxicity: 1
[4]; male, BALB/c nude, mouse, in vivo
  animals with significant myocardium toxicities (histopathology): 7 animals
[4]; nude mice PC model, whole study period to D40
  body weight course versus control: significant decrease on D24
[4]; nude mice PC model
  body weight: 18.40 ± 2.97 g
[5]; given intraperitoneally (i.p)
  LD50: 13.2 mg/kg
[5]; given intravenously
  LD50: 12.0 mg/kg

## COc1cccc2c1C(=O)c1c(O)c3c(c(O)c1C2=O)C[C@@](O)(C(=O)CO)C[C@@H]3O[C@H]1C[C@H](NC(=O)OCc2ccc(NC(=O)[C@H](CCCCN)NC(=O)[C@H](Cc3ccccc3)NC(C)=O)cc2)[C@H](O)[C@H](C)O1 [PADM, Ac-Phe-Lys-PABC-ADM]
Primary tumor
  Ratio, PADM/Dox: 1.05
Metastases; Metastases to Diaphragm
  Ratio, PADM/Dox: 2.3
Metastases; Metastases to Lung
  Ratio, PADM/Dox: 1.9
Metastases; [7]
  Ratio, PADM/Dox: 5.7
Metastases; Metastases to Mesenteric
  Ratio, PADM/Dox: 3.8
Metastases; Metastases to Retroperitoneal
  Ratio, PADM/Dox: 1.2
SGC-7901 cells [2]
  effect on cell cycle / apoptosis: did not show significant apoptosis
[3]
  lung metastasis: no lung metastasis
  median (range) ePCI score: 1 (1-4)
  relative ePCI reduction: 83.3%
Cat B
  cleavage in Cat B-rich medium: rapidly cleaved
[4]
  peripheral blood parameters (RBC, lymphocytes) versus control: no differences
  liver and kidney function (ALT, AST, BUN, Cr) versus control: only ALT levels achieved statistical significance
[4]; D40, group n=10
  animals with significant myocardium toxicities (histopathology): 4 animals
[4]; nude mice PC model
  body weight: 23.61 ± 0.80 g
[6]
  changes in human plasma (stability): no changes were observed; also recorded: stable in human plasma
Pilot dosage study; after 4 administrations
  histopathological study of major organs: No obvious damages
Pilot dosage study; after the fourth administration, total 96.0 mg/kg group A, 144.0 mg/kg group B
  body weight changes: persistent body weight decreases
Pilot dosage study; i.p, first 3 injections, groups A and B
  body weight changes: no obvious changes in body weight
Pilot dosage study; total dosage
  ceiling dosage set for formal in vivo test: below 96.0 mg/kg
